Assay results reported in ChEMBL document CHEMBL1201862, “PubChem BioAssay data set” (2004).
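Where inhibition never reached the appropriate level, the endpoint shown equals the highest concentration tested. Otherwise, values were interpolated linearly from a five-concentration, 48-hour dose response in 96-well plates. GI50 = concentration required for 50% inhibition of growth.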 Active and inactive are the calls of the source. Rule as the data show it: active = GI50 up to about 1.1 µM and inactive = higher.

Assays:
Test in all cases: NCI anticancer screen, dose series, 48 h
HCT-15 = test system: HCT-15
OVCAR-4 = test system: OVCAR-4
SF-268 = test system: SF-268
SF-295 = test system: SF-295
PC-3 = test system: PC-3
SR = test system: SR
NCI-H460 = test system: NCI-H460
786-0 = test system: 786-0
EKVX = test system: EKVX
COLO 205 = test system: COLO 205
NCI/ADR-RES = test system: NCI/ADR-RES
HCC 2998 = test system: HCC 2998
NCI-H23 = test system: NCI-H23
SK-MEL-2 = test system: SK-MEL-2
KM12 = test system: KM12
SK-MEL-5 = test system: SK-MEL-5
IGROV-1 = test system: IGROV-1
SW-620 = test system: SW-620
Malme-3M = test system: Malme-3M
A549 = test system: A549
HT-29 = test system: HT-29
UACC-257 = test system: UACC-257
HOP-62 = test system: HOP-62
DU-145 = test system: DU-145
OVCAR-8 = test system: OVCAR-8
UACC-62 = test system: UACC-62
SF-539 = test system: SF-539
HCT-116 = test system: HCT-116
LOX IMVI = test system: LOX IMVI
NCI-H226 = test system: NCI-H226
OVCAR-5 = test system: OVCAR-5
MOLT-4 = test system: MOLT-4
SK-MEL-28 = test system: SK-MEL-28
CCRF-CEM = test system: CCRF-CEM
UO-31 = test system: UO-31
MDA-MB-231 = test system: MDA-MB-231
SNB-19 = test system: SNB-19
RXF 393 = test system: RXF 393
T47D = test system: T47D
HOP-92 = test system: HOP-92
M14 = test system: M14
RPMI-8226 = test system: RPMI-8226
SK-OV-3 = test system: SK-OV-3
BT-549 = test system: BT-549
K562 = test system: K562
MDA-N = test system: MDA-N
OVCAR-3 = test system: OVCAR-3
SNB-75 = test system: SNB-75
A498 = test system: A498
NCI-H522 = test system: NCI-H522
MCF7 = test system: MCF7
MDA-MB-435 = test system: MDA-MB-435
Hs-578T = test system: Hs-578T
HL-60 = test system: HL-60
ACHN = test system: ACHN
SN12C = test system: SN12C
TK-10 = test system: TK-10
U-251 = test system: U-251
CAKI-1 = test system: CAKI-1
DMS-114 = test system: DMS-114
LXFL 529 = test system: LXFL 529
DMS-273 = test system: DMS-273
DLD-1 = test system: DLD-1

ClCc1nn(-c2ccccc2)c(CCl)c1CCl
GI50 (HCT-15): 3.33 µM | GI50 (OVCAR-4): 2.72 µM (inactive) | GI50 (SF-268): 3.27 µM (inactive) | GI50 (SF-295): 6 µM (inactive) | GI50 (PC-3): 5.71 µM (inactive) | GI50 (SR): 0.813 µM (active) | GI50 (NCI-H460): 2.66 µM (inactive) | GI50 (786-0): 2.56 µM (inactive) | GI50 (EKVX): 3.03 µM (inactive) | GI50 (COLO 205): 3.88 µM (inactive) | GI50 (NCI/ADR-RES): 5.57 µM (inactive) | GI50 (HCC 2998): 12.1 µM (inactive) | GI50 (NCI-H23): 4.46 µM (inactive) | GI50 (SK-MEL-2): 5.71 µM (inactive) | GI50 (KM12): 3.37 µM (inactive) | GI50 (SK-MEL-5): 2.68 µM (inactive) | GI50 (IGROV-1): 3.44 µM (inactive) | GI50 (SW-620): 2.55 µM (inactive) | GI50 (Malme-3M): 2.99 µM (inactive) | GI50 (A549): 7.66 µM (inactive) | GI50 (HT-29): 3.43 µM (inactive) | GI50 (UACC-257): 7.76 µM (inactive) | GI50 (HOP-62): 15.8 µM (inactive) | GI50 (DU-145): 4.68 µM (inactive) | GI50 (OVCAR-8): 2.35 µM (inactive) | GI50 (UACC-62): 3.47 µM (inactive) | GI50 (SF-539): 2.34 µM (inactive) | GI50 (HCT-116): 2.33 µM (inactive) | GI50 (LOX IMVI): 1.47 µM (inactive) | GI50 (NCI-H226): 4.45 µM (inactive) | GI50 (OVCAR-5): 7.16 µM (inactive) | GI50 (MOLT-4): 1.72 µM (inactive) | GI50 (SK-MEL-28): 5.32 µM (inactive) | GI50 (CCRF-CEM): 1.17 µM (inactive) | GI50 (UO-31): 4.74 µM (inactive) | GI50 (MDA-MB-231): 4.34 µM (inactive) | GI50 (SNB-19): 6.73 µM (inactive) | GI50 (RXF 393): 4.82 µM (inactive) | GI50 (T47D): 3.55 µM (inactive) | GI50 (HOP-92): 3.33 µM (inactive) | GI50 (M14): 3.3 µM (inactive) | GI50 (RPMI-8226): 2.52 µM (inactive) | GI50 (SK-OV-3): 8.89 µM (inactive) | GI50 (BT-549): 3.77 µM (inactive) | GI50 (K562): 2.54 µM (inactive) | GI50 (MDA-N): 2.88 µM (inactive) | GI50 (OVCAR-3): 3.47 µM (inactive) | GI50 (SNB-75): 1.74 µM (inactive) | GI50 (A498): 12 µM (inactive) | GI50 (NCI-H522): 4.25 µM (inactive) | GI50 (MCF7): 2.38 µM (inactive) | GI50 (MDA-MB-435): 2.41 µM (inactive) | GI50 (Hs-578T): 14.5 µM (inactive) | GI50 (HL-60): 1.82 µM (inactive) | GI50 (ACHN): 2.96 µM (inactive) | GI50 (SN12C): 3.11 µM (inactive) | GI50 (TK-10): 8.39 µM (inactive) | GI50 (U-251): 2.35 µM (inactive) | GI50 (CAKI-1): 7.31 µM (inactive)

O=C1NC(=S)S/C1=C/c1ccco1
GI50 (HCT-15): > 100 µM | GI50 (OVCAR-4): > 100 µM (inactive) | GI50 (SF-268): > 100 µM (inactive) | GI50 (SF-295): > 100 µM (inactive) | GI50 (NCI-H460): > 100 µM (inactive) | GI50 (EKVX): > 100 µM (inactive) | GI50 (COLO 205): > 100 µM (inactive) | GI50 (HCC 2998): > 100 µM (inactive) | GI50 (NCI-H23): > 100 µM (inactive) | GI50 (DMS-114): > 100 µM (inactive) | GI50 (SK-MEL-5): > 100 µM (inactive) | GI50 (IGROV-1): > 100 µM (inactive) | GI50 (SW-620): > 100 µM (inactive) | GI50 (LXFL 529): > 100 µM (inactive) | GI50 (A549): > 100 µM (inactive) | GI50 (HT-29): > 100 µM (inactive) | GI50 (UACC-257): 46.3 µM (inactive) | GI50 (OVCAR-8): > 100 µM (inactive) | GI50 (DMS-273): > 100 µM (inactive) | GI50 (UACC-62): > 100 µM (inactive) | GI50 (SF-539): > 100 µM (inactive) | GI50 (HCT-116): > 100 µM (inactive) | GI50 (LOX IMVI): > 100 µM (inactive) | GI50 (NCI-H226): > 100 µM (inactive) | GI50 (OVCAR-5): > 100 µM (inactive) | GI50 (SK-MEL-28): > 100 µM (inactive) | GI50 (UO-31): > 100 µM (inactive) | GI50 (SNB-19): > 100 µM (inactive) | GI50 (RXF 393): > 100 µM (inactive) | GI50 (HOP-92): 49.4 µM (inactive) | GI50 (M14): > 100 µM (inactive) | GI50 (DLD-1): > 100 µM (inactive) | GI50 (SK-OV-3): > 100 µM (inactive) | GI50 (OVCAR-3): 50.1 µM (inactive) | GI50 (SNB-75): > 100 µM (inactive) | GI50 (A498): 11.1 µM (inactive) | GI50 (ACHN): > 100 µM (inactive) | GI50 (SN12C): > 100 µM (inactive) | GI50 (TK-10): > 100 µM (inactive) | GI50 (CAKI-1): > 100 µM (inactive)
